Source: patent US6548450B1, “Tetrazolinone derivatives” (Nihon Bayer Agrochem, K.K., priority 1999, dated 2003)

Test system: paddy field weeds
Assay: Test for herbicidal effect against paddy field weeds
Format: in vivo
Settings: application rate of 0.5 kg/ha, applied to the surface of the water 5 days after rice transplantation, examined after 3 weeks, greenhouse pot
Method: Test for Herbicidal Effect Against Paddy Field Weeds
Preparation of formulation of the active compound
Carrier: Acetone 5 parts by weight
Emulsifier: Benzyloxypolyglycolether 1 part by weight
A formulation of the active compound is obtained as an emulsion by mixing 1 part by weight of the active compound with the above-mentioned amount of carrier and emulsifier. A prescribed amount of said formulation is diluted with water to prepare a formulation for testing.
In a greenhouse 3 seedlings of paddy rice (cultivar: Nipponbare) of 2.5 leafstage (15 cm tall) were transplanted in a 500 cm^2 pot filled with paddy field soil. Then seeds of barnyard grass, smallflower, bulrush, monochoria and broad-leaved weeds (common false pimpernel, Indian toothcup, long stemmed water wort, Ammannia multiflora Roxb., Dopatrium junceum Hammilt etc.) were sown and water was poured on the soil to a depth of about 2-3 cm.
5 days after the rice transplantation a formulation of each active compound prepared according to the aforementioned preparation method was applied to the surface of the water. A water depth of 3 cm was maintained. The herbicidal effect was examined after 3 weeks from the treatment. The herbicidal effect was rated as 100% in the case of complete death and as 0% in the case of no herbicidal effect.

With `CC(C)N(C(=O)n1nnn([C@@H](C)c2ccccc2)c1=O)c1ccccc1` [compound 3, 1-((S)-α-methylbenzyl)-4-(N-isopropyl-N-phenylcarbamoyl)-5(4H)-tetrazolinone] the “herbicidal effect against paddy field weeds” value was “sufficient herbicidal effect”.
